Consider 1 compound from patent publication US9517222B2, “Method for the treatment of senile dementia of the Alzheimer's type” (Phenomenome Discoveries Inc., priority 2007, dated 2016).

Common to all, as to format: cell-based
The test system of one experiment is wild type CHO cells. Nature of the experiment: Restoration of PtdEt and EtnPl pools in vitro, wild type CHO cells. The following applies: 20 μM, 72 hours. The method, then:
(§1) FIGS. 25A-B show the relative change in the total EtnPls and PtdEt content. […] Values are normalized to untreated control CHO cells, and are an average of three independent experiments. Statistical significance was determined using a two-tailed t-test.
(§2) FIGS. 26A-B show the relative change in the DHA-EtnPls and DHA-PtdEt content. […] Values are normalized to untreated control CHO cells, and are an average of three independent experiments. Statistical significance was determined using a two-tailed t-test.
(§3) To investigate whether exogenous metabolic precursors can restore the ethanolamine phospholipids deficiency in vitro, a CHO cell line deficient in plasmalogen synthesis (NRel-4) was treated with the metabolic precursors 5a (sn-1-alkyl,sn-2-DHA glycerol) for 72 hours at a concentration of 20 μM, and its lipid profile was compared with the wild type cell line.

In experiment [1] the test system is plasmalogen-deficient NRel-4 cells. In words: Restoration of PtdEt and EtnPl pools in vitro, plasmalogen-deficient NRel-4 cells. The conditions noted are these: 20 μM, 72 hours. The protocol: as §1, §2, §3
A further experiment concerns NRel-4 cell line. In words: Total, free and esterified cholesterol in cultured cells (Cholesterol Quantification kit). The protocol:
Total cholesterol (solid bars), esterified cholesterol (hatched bars), and free cholesterol (dotted) content is represented as μg per million cells. C_V: control CHO cells treated with ethanol carrier; N_V: NRel4 cells treated with ethanol carrier; N_5a: Nrel-4 cells treated with metabolic precursor 5a (20 μM).
To test the effect of metabolite precursors on total and esterified cholesterol in vitro, the CHO/NRel-4 cell line model was used. […] CHO cell line cultured in the presence of the ethanol vehicle (C_V) has 6.66 μg total cholestero/million cells. This reflects the wild type phenotype, and was used for normalization. The NRel-4 cell line deficient in plasmalogen synthesis cultured in the presence of ethanol vehicle (N_V) had 10.75 μg total cholestero/million cells (61% higher than control). Culturing the deficient cells with the metabolic precursor 5a (sn-1-alkyl, sn-2-DHA glycerol) for 72 hours at a concentration of 20 µM (N_5a) reduced the total cholesterol content to […] (24% higher than control). […] Treatment with 5a reduced the free cholesterol content to 5.8 μg/million cells. A reciprocal trend was observed when assaying the fraction of cholesterol that was esterified in the cell lines.

SMILES strings stand for the structures.

Turning to `CC/C=C\C/C=C\C/C=C\C/C=C\C/C=C\C/C=C\CCC(=O)OC(CO)COCCCCCCCCCCCCCCCC` (racemic) [Metabolite 5a, (4Z,7Z,10Z,13Z,16Z,19Z)-1-(hexadecyloxy)-3-hydroxypropan-2-yl docosa-4,7,10,13,16,19-hexanenoate], the “Relative total EtnPls content” value with wild type CHO cells (normalized to untreated control CHO cells) is on record as 86.9%; in experiment [1] (normalized to untreated control CHO cells, vehicle 10.8%) it was 44.2%. For the same compound, the “Total DHA-EtnPls pool” value is recorded as 136.8% with wild type CHO cells (of CHO levels) and 72.3% in experiment [1] (of CHO levels, vehicle 8.7%). For the same compound, the “Total PtdEt content” value with wild type CHO cells (of untreated control) amounted to 54.9%; in experiment [1] (of the control CHO), 55.9%. Besides, the values for the DHA-PtdEt pool (in the experiment with wild type CHO cells (vs untreated control CHO); in experiment [1] (vs untreated control CHO)) were 93.5% and 110.6%, respectively. In the experiment with NRel-4 cell line (NRel-4 cells treated with 5a, vehicle NRel-4 1.84), this compound gave an Esterified cholesterol of 2.49 μg/million cells. Further, the Free cholesterol content in the experiment on NRel-4 cell line (NRel-4 cells treated with 5a, vehicle NRel-4 8.9, CHO 4.5) stood at 5.8 μg/million cells. Further, the Total cholesterol content in the experiment on NRel-4 cell line (NRel-4 cells, 72 hours, 20 μM (N_5a), vehicle NRel-4 10.75, CHO 6.66) is 8.28 μg/million cells. Further, the “Total cholesterol content higher than control” value in the experiment on NRel-4 cell line (NRel-4 cells, 72 hours, 20 μM, vs CHO vehicle control) came out at 24%. In addition, the “Increase in the esterified fraction of cholesterol” value in the experiment on NRel-4 cell line (NRel-4 cells, vs vehicle-treated NRel-4) was 34%.
